What was measured:
AVEFA [1] = test: Post-emergence action at 320 g/ha against AVEFA; assay type: in vivo; conditions: visual rating about 3 weeks after treatment vs untreated controls
How it was run: (§1)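 Greenhouse-grown plants sprayed post-emergence at the one-leaf stage, 2 to 3 weeks after sowing, with WP or EC formulations plus 0.5% additive at 600 l/ha water, at 320 g/ha. Activity rated visually after about 3 weeks versus untreated controls (100% = plants died, 0% = like control).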

DIGSA [2] = test: Pre-emergence action against DIGSA, 1280 g/ha; assay type: in vivo, Digitaria sanguinalis; conditions: visual scoring after about 3 weeks vs untreated controls, 100% = plants have died, 0% = like control plants
How it was run: (§2)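 Weed seeds sown in sandy loam in pots, covered with soil; compound as WP or EC applied to soil surface as aqueous suspension/emulsion with 0.5% additive at 600 L/ha water. Greenhouse, good growth conditions; visual % damage vs untreated controls after about 3 weeks (100% = plants dead, 0% = like control).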

AVEFA [3] = test: Pre-emergence action at 320 g/ha against AVEFA; assay type: in vivo; conditions: visual scoring after about 3 weeks vs untreated controls
How it was run: (§3)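 Weed and crop seeds sown in pots and covered with soil; WP or EC formulations sprayed pre-emergence onto the soil surface at 320 g/ha with 0.5% additive in 600 l/ha water. Kept in greenhouse; after about 3 weeks activity scored visually as % versus untreated controls (100% = plants dead, 0% = as control).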

LOLRI [4] = test: Pre-emergence action against LOLRI, 1280 g/ha; assay type: in vivo, Lolium rigidum; conditions: visual scoring after about 3 weeks vs untreated controls, 100% = plants have died, 0% = like control plants
How it was run: as §2

VERPE [5] = test: Post-emergence action against VERPE, 1.28 kg/ha; assay type: in vivo, Veronica persica; conditions: dosage 1280 g/ha, visual rating about 3 weeks after treatment vs untreated controls (100% = plants died)
How it was run: (§4)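 Visual rating against untreated plants about 3 weeks after spraying gives % activity, where 0% means like controls and 100% means plants died. Plants were treated post-emergence at the one-leaf stage with compound formulated as wettable powder or emulsion concentrate, applied at 600 L water/ha plus 0.5% additive.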

VERPE [6] = test: Pre-emergence action against VERPE, 1280 g/ha; assay type: in vivo, Veronica persica; conditions: scored visually after about 3 weeks vs untreated controls (100% = plants have died)
How it was run: as §2

ALOMY [7] = test: Post-emergence action against ALOMY, 320 g/ha; assay type: in vivo, Alopecurus myosuroides; conditions: dosage 320 g/ha, visual rating about 3 weeks after treatment vs untreated controls (100% = plants died)
How it was run: as §1

ALOMY [8] = test: Pre-emergence action against ALOMY, 1280 g/ha; assay type: in vivo, Alopecurus myosuroides; conditions: visual scoring after about 3 weeks vs untreated controls, 100% = plants have died, 0% = like control plants
How it was run: as §2

LOLRI [9] = test: Pre-emergence action at 320 g/ha against LOLRI; assay type: in vivo, Lolium rigidum; conditions: visual scoring after about 3 weeks vs untreated controls
How it was run: as §3

VIOTR = test: Post-emergence action at 320 g/ha against VIOTR; assay type: in vivo, Viola tricolor; conditions: visual rating about 3 weeks after treatment vs untreated controls
How it was run: as §1

MATIN = test: Post-emergence action against MATIN, 1.28 kg/ha; assay type: in vivo, Tripleurospermum inodorum (Matricaria inodora); conditions: dosage 1280 g/ha, visual rating about 3 weeks after treatment vs untreated controls (100% = plants died)
How it was run: as §4

DIGSA [10] = test: Post-emergence action against DIGSA, 1.28 kg/ha; assay type: in vivo, Digitaria sanguinalis; conditions: dosage 1280 g/ha, visual rating about 3 weeks after treatment vs untreated controls
How it was run: as §4

ALOMY [11] = test: Post-emergence action against ALOMY, 1.28 kg/ha; assay type: in vivo, Alopecurus myosuroides; conditions: dosage 1280 g/ha, visual rating about 3 weeks after treatment vs untreated controls
How it was run: as §4

Row | Compound | pest or weed control at 320 g/ha (AVEFA [1]; Avena fatua, 504 h) [%] | Pre-emergence action against DIGSA (DIGSA [2]) [%] | pest or weed control at 320 g/ha (AVEFA [3]; Avena fatua, 504 h) [%] | pest or weed control at 1280 g/ha (LOLRI [4]; Lolium rigidum, 504 h) [%] | pest or weed control at 1280 g/ha (VERPE [5]; Veronica persica, 504 h) [%] | pest or weed control at 1280 g/ha (VERPE [6]; Veronica persica, 504 h) [%] | Post-emergence action against ALOMY (ALOMY [7]) [%] | Pre-emergence action against ALOMY (ALOMY [8]) [%] | pest or weed control at 320 g/ha (LOLRI [9]; Lolium rigidum, 504 h) [%] | Post-emergence action against AVEFA in % (AVEFA [1]) [%] | Pre-emergence action against LOLRI (LOLRI [4]) [%] | Post-emergence action against VIOTR in % (VIOTR) [%] | Post-emergence action against VERPE (VERPE [5]) [%] | Pre-emergence action against VERPE (VERPE [6]) [%] | Post-emergence action against MATIN (MATIN) [%] | Post-emergence action against DIGSA (DIGSA [10]) [%] | Post-emergence action against ALOMY (ALOMY [11]) [%] | Pre-emergence action against LOLRI in % (LOLRI [9]) [%] | Pre-emergence action against AVEFA in % (AVEFA [3]) [%]
1 | C=CCNC(=O)COc1nn(-c2ccccc2F)c(-c2ccc(F)nc2)c1Br [Example X-001, N-Allyl-2-{[4-bromo-1-(2-fluorophenyl)-5-(6-fluoropyridin-3-yl)-1H-pyrazol-3-yl]oxy}acetamide] | 90 | 100 | 90 | 100 | 100 | 100 | 90 | 90 | 100 |  |  |  |  |  |  |  |  |  | 
2 | COC(=O)[C@@H](C)Oc1nn(-c2ccccc2)c(-c2cncnc2)c1Br [VI-013] |  | 100 |  |  |  |  | 80 | 90 |  | 80 | 100 | 90 | 100 | 100 | 100 | 90 | 100 | 90 | 
3 | COC(=O)C(C)Oc1nn(-c2ccccc2)c(-c2ccc(F)nc2)c1Br (stereo not shown) [VII-014] |  | 100 |  |  |  |  | 90 | 90 |  | 90 | 100 | 90 | 90 | 90 |  |  | 100 | 100 | 90
4 | COC(=O)C(C)Oc1nn(-c2ccccc2)c(-c2ccc(F)nc2)c1Br (stereo not shown) [VII-026] |  | 100 |  |  |  |  | 100 | 100 |  | 80 | 90 | 90 | 100 | 100 | 90 | 100 | 100 | 80 | 
5 | CCOC(=O)COc1nn(-c2ccccc2F)c(-c2ccc(F)nc2)c1I [VII-036] |  | 100 |  |  |  |  | 90 | 100 |  | 80 | 100 | 80 | 100 | 100 | 100 | 100 | 100 |  | 
6 | CCOC(=O)C(C)Oc1nn(-c2ccccc2F)c(-c2ccc(F)nc2)c1I (stereo not shown) [VII-057] |  | 100 |  |  |  |  | 80 | 100 |  |  | 100 | 80 | 90 | 100 | 100 | 100 | 100 | 90 | 90

Source: US12180187B2, “1-phenyl-5-azinylpyrazolyl-3-oxyalkyl acids and their use for controlling unwanted plant growth” (BAYER AKTIENGESELLSCHAFT, priority 2019, dated 2024)
